From a melting point compilation (Tetko et al.; mined from patent text by program, amines drawn as free bases though some values may be those of a salt)

Structure (SMILES)	melting point [°C]
O=S(=O)(O)c1ncnn1CC(O)(Cc1ccccc1Cl)C1(Cl)CC1 (stereo not drawn)	68 to 70
Cc1cc(C(=O)N2C(C)CCCC2C)ccc1[N+](=O)[O-] (stereo not drawn)	99.7 to 100
CCN(CC)CCSc1nnc(SCN2C(=O)c3ccccc3S2(=O)=O)s1	93 to 94.5
CSc1ccc(C=CC(=O)c2ccc(O)cc2)cc1	171
C=Cc1ccccc1C(=O)n1nnc2ccccc2c1=O	120
COC(=O)NS(=O)(=O)Oc1c(C(C)C)cccc1C(C)C	92 to 95
Cn1cc(-c2cc3nccnc3[nH]2)cn1	232 to 234
CC(C)(C)OC(=O)CON=C(c1ccccc1)c1cc2ccncc2[nH]1	47 to 52
CCOC(=O)c1cnn(C)c1C(=O)Nc1ccn2nc(-c3cccc(F)n3)nc2c1	290
Cc1ccc(Oc2cccc(CC(=O)O)c2N)cc1C	90 to 92
O=C(O)CC1COc2cc(Cl)c(Cl)cc2O1 (stereo not drawn)	145 to 147
Cc1cc(C)c(S(=O)(=O)NCCCCNS(=O)(=O)c2c(C)cc(C)cc2C)c(C)c1	156 to 158
Cc1ccc(-c2cccnc2)nc1	40 to 41
COC(=O)c1c(Cc2ccc(S(C)(=O)=O)nc2)c(=O)c2ccc(C)nc2n1-c1ccccc1	217 to 218
CC(=O)Nc1ccc(CCNc2nc(C)nc3sc(C)cc23)cc1	248
CCOC(=O)c1cc(NCc2ccccc2)c(Nc2ccccc2)c(S(=O)(=O)Nc2ccccc2)c1	166 to 167
CC(C)(C)[Si](C)(C)N1C(=O)CC1C(=O)NC(Cc1c[nH]c2ccccc12)C(=O)OCc1ccccc1 (stereo not drawn)	60 to 65
Cn1c(C#N)c(-c2ccc(F)cc2)c2cccnc2c1=O	231 to 232
COc1ccc(-c2ccc(C(C)=O)cc2)cc1OC1CCCC1	117 to 118
[N-]=[N+]=NC1(O)CC(n2ccc(N)nc2=O)OC1CO (stereo not drawn)	174 to 176
CCCN(CCc1c[nH]c2ccc(F)cc12)C1COc2ccc3ncccc3c2C1 (stereo not drawn)	67
Cn1cnc2c1c1nnc(-c3ccccc3)n1c(=O)n2Cc1ccccc1	255 to 257
Cc1ccccc1SCc1c(CCN(C)C)[nH]c2ccccc12	134 to 137
Cc1ccccc1N1CCN(S(=O)(=O)CC23CCC(CC2=NO)C3(C)C)CC1 (stereo not drawn)	174 to 175
CC(=O)Nc1nc(Cl)c2ncn(COC(COC(C)C)COC(C)C)c2n1	106
CCOc1c(C#N)c(C#N)c(OCC)c2ccccc12	167
CC(C)c1nn(-c2ccc(Br)cn2)cc1CCCO	96 to 97

Structure (SMILES)	melting point [°C]
COC(=O)C1C(c2ccc(I)cc2)CC2CCC1N2C (stereo not drawn)	101 to 102
CCOC(=O)c1nc2ccccc2n(CCO)c1=O	137 to 138
CCc1cc2c(s1)-n1c(nnc1CNC(=O)c1cc3ccccc3n1CC(=O)O)CN=C2c1ccccc1Cl	222 to 223
Cc1cc(-c2cc(=O)c3cccnc3o2)cc(C)c1OCC(=O)O	280
COc1ccc2c(c1)S(=O)(=O)N(CCCN1CCN(c3ncccn3)CC1)C(=O)N2	178
O=C(CCc1cccc([N+](=O)[O-])c1)c1c(O)c2cccnc2n(-c2ccccc2)c1=O	164 to 166
COC(=O)C1c2ccccc2C2C(=O)NCCN21 (stereo not drawn)	165 to 167
CC(C)(CF)C(=O)C(Br)Oc1ccc(Cl)cc1 (stereo not drawn)	73 to 75
CC(C)(C)OC(=O)N1CCC(OCc2ccccc2)C1CC(O)Cn1cnc2cccc(C(F)(F)F)c2c1=O (stereo not drawn)	224
O=C1CCC(N2Cc3c(CNC(=O)Nc4ccccc4)cccc3C2=O)C(=O)N1 (stereo not drawn)	328 to 330
O=C(O)c1ccccc1Nc1ccc(CCCc2ccc(Cl)c(Cl)c2)cc1	120 to 126
Cc1ccccc1NC(=O)c1ccc(-n2nc(C3CC3)cc2C2CC2)nc1	123 to 126
C#CCn1c(CC)nc2c(N)nc3ccccc3c21	182 to 184
COc1cc(OC)c2c(c1)Oc1cc(Br)ccc1CC2=O	95 to 103
Cc1cccc2[nH]c(=O)n(CCCN3CC=C(c4cccc(Cl)c4)CC3)c(=O)c12	180 to 183
Cn1nc(N2c3ccccc3C[C@H]2C(=O)O)ccc1=O	245 to 247
CCOc1ncc(C(C)=O)cc1C(=O)OC	111 to 112
O=C(CNC(=O)c1ccccc1)NC1CCN(CCc2c[nH]c3ccccc23)CC1	236 to 240
O=C(O)CCCNC(=O)c1ccc(NC(=O)c2ccccc2O)cc1	211 to 213
Cc1cccc(N2CCN(CCCCCC(=O)N3Cc4ccccc4C3)CC2)c1C#N	126
Cc1cnc2c3c(nccc13)C(=O)c1ccccc1-2	208 to 210
O=C(O)c1cc(OCc2ccccc2)ccc1OCc1ccccc1	107 to 108
O=C(O)CCCN(C(=O)c1ccc(Cl)cc1Cl)c1cccc2ccccc12	134 to 136
CC(C(=O)O)c1ccc(I)cc1 (stereo not drawn)	101 to 102
NNc1c(F)cc(F)c(F)c1F	63 to 65
CCOC(=O)c1nc2cc(-c3ccccc3)sc2nc1N	173 to 175

Now from value to compound:

melting point [°C]	Structure (SMILES)
188	CC1(C)CCC(C)(C)c2c(OCc3ccc(F)cc3)cc(C(O)C#Cc3ccc(C(=O)O)cc3)cc21 (stereo not drawn)
137 to 138	CC1(C)C(=O)N(c2ccc([N+](=O)[O-])c(C(F)(F)F)c2)C(=O)N1CCCCCCCN1C(=O)N(c2ccc([N+](=O)[O-])c(C(F)(F)F)c2)C(=O)C1(C)C
160 to 161	CCOC(=O)c1cc(=O)c2ccc(OC(=S)N(C)C)cc2o1
102	COc1ccc(-c2ccc(C#N)cc2)cc1C(C)=O
100 to 103	C[N+](C)([O-])c1ccc(/C=C/c2c(F)cccc2F)cc1
162	C=Cc1c(C(=O)NC2CC2)nnn1-c1ccc(C(=O)NCC)cc1
185 to 187	N#CC(C(=O)O)=C1Nc2ccccc2O1
108 to 110	CC(C)(C)c1cc(C(=O)c2cccs2)cc(CN(CCO)CCO)c1O
51	Cc1nn(C)c(C)c1N=C=S
204 to 206	CS(=O)c1csc(C(=O)C2C(=O)N(C(N)=O)c3ccc(Cl)cc32)c1 (stereo not drawn)
163	COc1ccc(S(=O)(=O)N(CC(N)=O)c2cc(Cl)c(Cl)cc2Cc2ccccc2Cl)cc1OC
265 to 268	CCn1c(=O)c2c(nc(/C=C/c3cc(O)c4c(c3)OCO4)n2C)n(CC)c1=O
165 to 167	COC(=O)CCn1c(C)c(Cc2cccnc2)c2c(CCC(=O)O)cccc21
227 to 229	NS(=O)(=O)c1nc(-c2ccc([N+](=O)[O-])cc2)c[nH]1
115 to 117	CC(C)N1CCC(CN2CCN(CCCN3CCCCC3)C2=C(C#N)C#N)CC1
208	O=C(CC1CCN(CCCn2c(=O)[nH]c3ccccc32)CC1)c1ccc(F)cc1
68 to 71	COC1c2ccccc2CSc2ccc(Br)cc21 (stereo not drawn)
113 to 114	COC(=O)C(=O)c1ccc(C#CCNC(=O)c2ccc3ccccc3c2)cc1
119	CCCc1oc2ccc([N+](=O)[O-])cc2c1C(=O)c1ccc(O)cc1
120 to 121	CCN(CC)C(=O)c1cc[nH]c1C
135 to 136	CN1C(=O)NC(=O)C1O (stereo not drawn)
146 to 152	COc1ccc(N2CCN(c3c(C)c(C)c4c(c3C)CC(C)(CNC(C)=O)O4)CC2)cc1 (stereo not drawn)
188 to 189	NS(=O)(=O)c1cc2cc(C=O)sc2s1

melting point [°C]	Structure (SMILES)
183 to 191	COc1ccc(C(=O)Nc2ccc(N3CCC(NC[C@H](O)COc4cccc5[nH]c6ccccc6c45)CC3)cc2)cc1OC
134 to 136	C/C(=C\c1ccc(OCCS(C)=O)cc1)c1ccc2c(c1)C(C)(C)CCC2(C)C (stereo not drawn)
96 to 97	CC(C)(NC(=O)CCNC(=O)OCc1ccccc1)c1ccccc1
108 to 110	CC(C)(C)OC(=O)NCC1CN(C(c2ccccc2)c2ccccc2)C1
266 to 267	O=C1CCc2ncc3cc(F)ccc3c2N1
126 to 128	O=[N+]([O-])c1ccc(OC23CC4CC(CC(C4)C2)C3)c2ccccc12
82 to 84	COc1ccc(-c2ccncc2)cc1Br
88.5 to 91.5	COc1ccc(-c2nc(-c3cccn3CC(=O)OC(C)C(C)C)sc2-c2ccc(OC)cc2)cc1 (stereo not drawn)
250 to 252	Cc1cccc2oc(C(=O)Nc3ccc(-c4ccc(S(=O)(=O)NC(C(=O)O)C(C)C)cc4)cc3)c(C)c12 (stereo not drawn)
89.3 to 91	CN(C)c1nc2sc3c(NCc4ccco4)ncnc3c2c2c1CCC2(C)C
124 to 125	COc1ccc(-c2c(Cl)c(CNC(=O)c3cccnc3)nc3sc4c(c23)CCN(Cc2ccccc2)C4)cc1OC
183 to 185	COc1ccc(Cc2nc3n(-c4c(Cl)cc(Cl)cc4Cl)[nH]c(C(C)C)c-3c(=O)n2)cc1
143 to 144	CCOC(=O)c1ccc(F)c(-c2cccc3cc(CBr)sc23)c1
115 to 120	CC(C)OC(=O)Cn1c(=O)n(C)c(=O)n(-c2cc(N=c3oc(=O)n4n3CCCC4)c(F)cc2Cl)c1=O
65 to 68	CC(=O)SCCC(=O)[C@@H]1CCCC[C@H]1C(=O)O (relative stereo)
152	O=C1c2nccc(Cl)c2C(=O)c2c(-c3ccccc3NC(=O)C(F)(F)F)ccnc21
93	Cc1ccc2cc(-c3cccc4ccccc34)nc(Cl)c2c1
69 to 70	Cc1cc([N+](=O)[O-])c(NC(C)C)c([N+](=O)[O-])c1C
60 to 62	CCN(CCCCCN(CCCCCN(CC)S(=O)(=O)c1c(C)cc(C)cc1C)S(=O)(=O)c1c(C)cc(C)cc1C)S(=O)(=O)c1c(C)cc(C)cc1C
119 to 120	CCOC(=O)N[C@@H]1CCc2c(ccc(OCc3ccccc3)c2N(C)Cc2ccccc2)[C@H]1O (relative stereo)
162 to 164	Cc1nc(Sc2cccc(C(F)(F)F)n2)sc1CC(=O)O
157 to 160	COc1cccc(NC(=O)NCc2ccc(Nc3n[nH]c4ncnc(Nc5cccc(Cl)c5)c34)cc2)c1
